Reference: ChEMBL document CHEMBL1944629, “Investigation of trypanothione reductase inhibitory activity by 1,3,4-thiadiazolium-2-aminide derivatives and molecular docking studies” (Bioorg Med Chem, 2012)
Activity calls are given as the source filed them. The calls are words filed in the database; no cut-off is given here.

Legend:
[1] = biological target: Trypanothione reductase (Leishmania amazonensis) (UniProt A5JV95); experiment: Inhibition of trypanothione reductase in Leishmania amazonensis MHOM/BR/LTB0016 extracts assessed as NADPH consumption using trypanothione disulfide as substrate at 1 uM after 5 sec by spectrophotometer
Chain of Trypanothione reductase (Leishmania amazonensis) (A5JV95 as listed by the source): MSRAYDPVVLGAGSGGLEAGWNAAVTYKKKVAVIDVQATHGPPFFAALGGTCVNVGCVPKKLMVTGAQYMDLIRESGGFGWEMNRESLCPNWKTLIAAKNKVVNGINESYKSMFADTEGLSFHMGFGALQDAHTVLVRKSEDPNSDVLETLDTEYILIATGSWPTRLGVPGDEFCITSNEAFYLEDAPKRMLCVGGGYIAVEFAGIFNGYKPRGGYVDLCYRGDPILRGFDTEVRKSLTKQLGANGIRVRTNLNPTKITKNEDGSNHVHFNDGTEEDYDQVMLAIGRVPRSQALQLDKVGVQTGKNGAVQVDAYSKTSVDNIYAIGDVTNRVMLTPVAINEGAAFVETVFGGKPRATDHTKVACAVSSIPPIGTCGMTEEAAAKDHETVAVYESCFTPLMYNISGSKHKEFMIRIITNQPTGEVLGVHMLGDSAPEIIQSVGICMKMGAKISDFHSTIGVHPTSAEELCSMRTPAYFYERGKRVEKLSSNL

[2] = biological target: Trypanothione reductase (Leishmania infantum) (UniProt A4HSF7); experiment: Inhibition of recombinant Leishmania infantum MHOM/MA67ITMAP263 trypanothione reductase assessed as inhibition of NADPH consumption using trypanothione disulfide as substrate at 1 uM after 60 secs by spectrophotometer
Chain of Trypanothione reductase (Leishmania infantum) (A4HSF7 as listed by the source): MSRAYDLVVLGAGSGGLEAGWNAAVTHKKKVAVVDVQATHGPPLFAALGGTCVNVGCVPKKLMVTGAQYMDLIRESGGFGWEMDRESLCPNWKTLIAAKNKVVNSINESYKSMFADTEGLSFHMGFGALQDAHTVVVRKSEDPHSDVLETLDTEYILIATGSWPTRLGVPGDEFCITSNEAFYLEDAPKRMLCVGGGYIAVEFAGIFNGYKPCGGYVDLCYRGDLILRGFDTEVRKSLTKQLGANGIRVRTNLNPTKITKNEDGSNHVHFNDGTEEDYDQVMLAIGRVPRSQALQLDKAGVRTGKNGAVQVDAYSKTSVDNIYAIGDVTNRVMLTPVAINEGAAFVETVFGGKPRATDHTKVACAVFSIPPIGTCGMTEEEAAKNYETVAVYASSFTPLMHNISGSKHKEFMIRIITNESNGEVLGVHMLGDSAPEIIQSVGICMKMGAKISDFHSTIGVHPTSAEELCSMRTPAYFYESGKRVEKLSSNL

[3] = biological target: Trypanothione reductase (Trypanosoma cruzi) (UniProt P28593); experiment: Inhibition of recombinant Trypanosoma cruzi Y trypanothione reductase assessed as inhibition of NADPH consumption using trypanothione disulfide as substrate at 1 uM after 60 secs by spectrophotometer
Chain of Trypanothione reductase (Trypanosoma cruzi) (P28593 whole entry, looked up): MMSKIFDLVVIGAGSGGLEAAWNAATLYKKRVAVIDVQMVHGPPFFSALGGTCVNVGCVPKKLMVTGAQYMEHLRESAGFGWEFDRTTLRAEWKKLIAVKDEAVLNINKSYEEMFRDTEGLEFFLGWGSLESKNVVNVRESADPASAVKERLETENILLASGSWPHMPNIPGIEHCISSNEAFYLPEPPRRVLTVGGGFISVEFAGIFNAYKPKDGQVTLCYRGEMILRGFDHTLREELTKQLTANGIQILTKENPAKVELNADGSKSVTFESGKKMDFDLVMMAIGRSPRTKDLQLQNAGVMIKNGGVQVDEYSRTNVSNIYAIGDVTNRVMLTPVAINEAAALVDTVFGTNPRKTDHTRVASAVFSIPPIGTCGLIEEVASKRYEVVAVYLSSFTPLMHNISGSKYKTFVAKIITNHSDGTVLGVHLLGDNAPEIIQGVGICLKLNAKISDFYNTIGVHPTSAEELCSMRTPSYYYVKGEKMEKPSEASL

[4] = biological target: Trypanothione reductase (Leishmania infantum) (UniProt A4HSF7); experiment: Inhibition of trypanothione reductase in promastigotes of Leishmania infantum MHOM/MA67ITMAP263 extracts assessed as NADPH consumption using trypanothione disulfide as substrate at 1 uM after 5 sec by spectrophotometer
Leishmania braziliensis = experiment: Inhibition of trypanothione reductase in promastigotes of Leishmania braziliensis MCAN/BR/98/R619 extracts assessed as NADPH consumption using trypanothione disulfide as substrate at 1 uM after 5 sec by spectrophotometer
[5] = biological target: Trypanothione reductase (Trypanosoma cruzi) (UniProt P28593); experiment: Inhibition of trypanothione reductase epimastigotes of Trypanosoma cruzi Y extracts assessed as NADPH consumption using trypanothione disulfide as substrate at 1 uM after 5 sec by spectrophotometer

| inhibition [1] | inhibition [2] | inhibition [3] | inhibition [4] [%] | inhibition (Leishmania braziliensis) [%] | inhibition [5] [%] | Structure (SMILES) |
| --- | --- | --- | --- | --- | --- | --- |
| inactive |  |  |  |  |  | COc1ccc(/C=C/c2sc(Nc3ccccc3)n[n+]2-c2ccccc2)cc1 |
| inactive |  |  |  |  |  | COc1cccc(/C=C/c2sc(Nc3ccccc3)n[n+]2-c2ccccc2)c1 |
| inactive | inactive | inactive |  |  |  | C(=C\c1sc(Nc2ccccc2)n[n+]1-c1ccccc1)/c1ccccc1 |
| 76% | 76% | 69% | 70 | 69.5 | 83 | O=[N+]([O-])c1ccc(/C=C/c2sc(Nc3ccccc3)n[n+]2-c2ccccc2)cc1 |
